Reference: paper PMC2851732, “Peptide Inhibitors of Dengue-Virus Entry Target a Late-Stage Fusion Intermediate” (PLoS Pathogens, 2010)
Ends that are not written are not given here.

These sequences were tested against T1, DV2 sE(1–395) postfusion trimer (Dengue virus type 2, UniProt P12823) (assay: Fluorescence polarization binding of FITC-tagged stem peptides to postfusion sE trimer).
T1 construct: The sE component (residues 1–395) of the ectodomain is in ribbon representation; purchased Hawai'i Biotech
Set-up: species or system dengue virus serotype 2

Row | Sequence | IC50
1 | AILGDTAWDFGSLGGVFTSIGKA [DV2^413-435] | 2000 nM
2 | AILGDTAWDFGSLGGVFTSIGKALHQVF [DV2^413-440] | 250 nM
3 | AWDFGSLGGVFTSIGKALHQVF [DV2^419-440] | 250 nM
